The text below walks through data of patent US20260174788A1 (priority 2023, published 2026).

Bounds are passed on as bounds.

A short description of series [1]: Pharmacokinetics of gemcitabine and dFdU in urine and plasma after TAR-200. The settings on record: for Mean cumulative excreted amount in urine as percentage of the administered dose: 0-168 hours after TAR-200; for Tmax: human, urine, other: intravesical, 225 mg gemcitabine.
Series [2] has as its system HR NMIBC (CIS with or without papillary disease) unresponsive to prior intravesical BCG therapy. Details: species or system human. The settings on record: in vivo.

Take `O=c1ccn([C@@H]2O[C@H](CO)[C@@H](O)C2(F)F)c(=O)[nH]1` [dFdU, 2′,2′ difluorodeoxyuridine]: in series [1], the “Mean cumulative excreted amount in urine as percentage of the administered dose” value is listed as 11.1-23.3% and the Tmax lay within 72 to 144 h.

With `Nc1ccn([C@@H]2O[C@H](CO)[C@@H](O)C2(F)F)c(=O)n1` [gemcitabine], in series [1], the “Mean cumulative excreted amount in urine as percentage of the administered dose” value is 36.2-53.8% and the Tmax was in the range of 48 to 96 h. In addition, in series [1] (after TAR-200 (225 mg gemcitabine)), the “Mean gemcitabine concentration in urine versus tumoricidal concentration” value was > 3 µg/mL. In addition, in series [2], the “12-month CR rate, all TAR-200 treated patients” value is recorded as 64%; the “Responders who achieved CR at the 12 weeks disease assessment” value is reported as 47 out of 48; the “effectiveness versus existing standard of care” value is given as “nearly two times as effective”.
